In patent US11802111B2, “Cyclobutyl amide monoacylglycerol lipase modulators” (Janssen Pharmaceutica NV, priority 2020, dated 2023):

Molecular target: human MGL from HeLa cells (Homo sapiens (Human), UniProt Q99685)
Assay: MGL in vitro activity assay ([glycerol-1,3-3H]-oleoyl glycerol hydrolysis, activated carbon filtration)
Assay type: biochemical
Conditions: 300 nM [Glycerol-1,3-3H]-oleoyl glycerol, one hour
Procedure, shortened: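 Activity measured as tritium in the flow-through after activated carbon filtration of a 1 h reaction containing 300 nM 3H-oleoyl glycerol, compound and HeLa-derived human MGL. Compounds screened at 10 μM; IC50 series start at an empirically chosen highest concentration.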

Chain of human MGL from HeLa cells (Q99685 whole entry): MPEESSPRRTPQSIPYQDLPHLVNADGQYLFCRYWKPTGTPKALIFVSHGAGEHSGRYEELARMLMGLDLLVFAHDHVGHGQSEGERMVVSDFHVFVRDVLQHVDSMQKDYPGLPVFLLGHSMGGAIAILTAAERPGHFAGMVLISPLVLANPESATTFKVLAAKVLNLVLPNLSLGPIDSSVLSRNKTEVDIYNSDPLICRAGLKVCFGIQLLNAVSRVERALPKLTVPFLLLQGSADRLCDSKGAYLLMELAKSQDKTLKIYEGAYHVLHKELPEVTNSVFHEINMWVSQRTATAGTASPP

Compound | IC50 [nM]
COc1ccc(CC2CC3(C2)CN(C(=O)[C@H]2C[C@@](C)(O)C2)C3)c(C(F)F)c1 [Example 274, (6-(2-(Difluoromethyl)-4-methoxybenzyl)-2-azaspiro[3.3]heptan-2-yl)((1s,3s)-3-hydroxy-3-methylcyclobutyl)methanone] | 6.2
COc1cc(C(F)F)ccc1CC1CC2(C1)CN(C(=O)[C@H]1C[C@@](C)(O)C1)C2 [Example 275, (6-(4-(Difluoromethyl)-2-methoxybenzyl)-2-azaspiro[3.3]heptan-2-yl)((1s,3s)-3-hydroxy-3-methylcyclobutyl)methanone] | 0.44
COc1cc(CC2CC3(C2)CN(C(=O)[C@H]2C[C@@](C)(O)C2)C3)ccc1C(F)(F)F [Example 276, ((1s,3s)-3-Hydroxy-3-methylcyclobutyl)(6-(3-methoxy-4-(trifluoromethyl)benzyl)-2-azaspiro[3.3]heptan-2-yl)methanone] | 1
Cc1ccc(CC2CC3(C2)CN(C(=O)[C@H]2C[C@@](C)(O)C2)C3)nc1C(F)(F)F [Example 277, ((1s,3s)-3-Hydroxy-3-methylcyclobutyl)(6-((5-methyl-6-(trifluoromethyl)pyridin-2-yl)methyl)-2-azaspiro[3.3]heptan-2-yl)methanone] | 18
Cc1nc(CC2CC3(C2)CN(C(=O)[C@H]2C[C@@](C)(O)C2)C3)ccc1C(F)(F)F [Example 278, ((1s,3s)-3-Hydroxy-3-methylcyclobutyl)(6-((6-methyl-5-(trifluoromethyl)pyridin-2-yl)methyl)-2-azaspiro[3.3]heptan-2-yl)methanone] | 16
Cc1ccc(CC2CC3(C2)CN(C(=O)[C@H]2C[C@@](C)(O)C2)C3)nc1OC(C)C [Example 279, ((1s,3s)-3-Hydroxy-3-methylcyclobutyl)(6-((6-isopropoxy-5-methylpyridin-2-yl)methyl)-2-azaspiro[3.3]heptan-2-yl)methanone] | 10
Cc1nc(CC2CC3(C2)CN(C(=O)[C@H]2C[C@@](C)(O)C2)C3)ccc1OC(F)F [Example 280, (6-((5-(Difluoromethoxy)-6-methylpyridin-2-yl)methyl)-2-azaspiro[3.3]heptan-2-yl)((1s,3s)-3-hydroxy-3-methylcyclobutyl)methanone] | 37
COc1nc(CC2CC3(C2)CN(C(=O)[C@H]2C[C@@](C)(O)C2)C3)ccc1C(F)(F)F [Example 281, ((1s,3s)-3-Hydroxy-3-methylcyclobutyl)(6-((6-methoxy-5-(trifluoromethyl)pyridin-2-yl)methyl)-2-azaspiro[3.3]heptan-2-yl)methanone] | 1.2
CC(C)Oc1nc(CC2CC3(C2)CN(C(=O)[C@H]2C[C@@](C)(O)C2)C3)ccc1C(F)(F)F [Example 282, ((1s,3s)-3-Hydroxy-3-methylcyclobutyl)(6-((6-isopropoxy-5-(trifluoromethyl)pyridin-2-yl)methyl)-2-azaspiro[3.3]heptan-2-yl)methanone] | 1
Cn1nc(CC2CC3(C2)CN(C(=O)[C@H]2C[C@@](C)(O)C2)C3)cc1C(F)(F)F [Example 283, ((1s,3s)-3-Hydroxy-3-methylcyclobutyl)(6-((1-methyl-5-(trifluoromethyl)-1H-pyrazol-3-yl)methyl)-2-azaspiro[3.3]heptan-2-yl)methanone] | 116
C[C@]1(O)C[C@@H](C(=O)N2CC3(CC(Cc4ccc5ccnn5c4)C3)C2)C1 [Example 284, ((1s,3s)-3-Hydroxy-3-methylcyclobutyl)(6-(pyrazolo[1,5-c]pyridin-6-ylmethyl)-2-azaspiro[3.3]heptan-2-yl)methanone] | 122
C[C@]1(O)C[C@@H](C(=O)N2CC3(CC(Cc4cccc5ccnn45)C3)C2)C1 [Example 285, ((1s,3s)-3-Hydroxy-3-methylcyclobutyl)(6-(pyrazolo[1,5-c]pyridin-7-ylmethyl)-2-azaspiro[3.3]heptan-2-yl)methanone] | 47
C[C@]1(O)C[C@@H](C(=O)N2CC3(CC(Cn4ccc5cccnc54)C3)C2)C1 [Example 286, (6-((1H-Pyrrolo[2,3-b]pyridin-1-yl)methyl)-2-azaspiro[3.3]heptan-2-yl)((1s,3s)-3-hydroxy-3-methylcyclobutyl)methanone] | 90
Cc1cc2cccnc2n1CC1CC2(C1)CN(C(=O)[C@H]1C[C@@](C)(O)C1)C2 [Example 287, ((1s,3s)-3-Hydroxy-3-methylcyclobutyl)(6-((2-methyl-1H-pyrrolo[2,3-b]pyridin-1-yl)methyl)-2-azaspiro[3.3]heptan-2-yl)methanone] | 67
Cc1ccc2ccn(CC3CC4(C3)CN(C(=O)[C@H]3C[C@@](C)(O)C3)C4)c2n1 [Example 288, ((1s,3s)-3-Hydroxy-3-methylcyclobutyl)(6-((6-methyl-1H-pyrrolo[2,3-b]pyridin-1-yl)methyl)-2-azaspiro[3.3]heptan-2-yl)methanone] | 26
CC(C)n1ccc2ccc(CC3CC4(C3)CN(C(=O)C3CC(C)(O)C3)C4)nc21 (stereo not drawn) [Example 289, ((1s,3s)-3-Hydroxy-3-methylcyclobutyl)(6-((1-isopropyl-1H-pyrrolo[2,3-b]pyridin-6-yl)methyl)-2-azaspiro[3.3]heptan-2-yl)methanone] | 8.2
CC(C)c1ccc2ccn(CC3CC4(C3)CN(C(=O)[C@H]3C[C@@](C)(O)C3)C4)c2n1 [Example 290, ((1s,3s)-3-Hydroxy-3-methylcyclobutyl)(6-((6-isopropyl-1H-pyrrolo[2,3-b]pyridin-1-yl)methyl)-2-azaspiro[3.3]heptan-2-yl)methanone] | 16
Cc1cn(C)c2nc(CC3CC4(C3)CN(C(=O)[C@H]3C[C@@](C)(O)C3)C4)ccc12 [Example 291, (6-((1,3-Dimethyl-1H-pyrrolo[2,3-b]pyridin-6-yl)methyl)-2-azaspiro[3.3]heptan-2-yl)((1s,3s)-3-hydroxy-3-methylcyclobutyl)methanone] | 3.8
Cc1cc2ccc(CC3CC4(C3)CN(C(=O)[C@H]3C[C@@](C)(O)C3)C4)nc2n1C [Example 292, (6-((1,2-Dimethyl-1H-pyrrolo[2,3-b]pyridin-6-yl)methyl)-2-azaspiro[3.3]heptan-2-yl)((1s,3s)-3-hydroxy-3-methylcyclobutyl)methanone] | 19
Cn1cc(F)c2ccc(CC3CC4(C3)CN(C(=O)[C@H]3C[C@@](C)(O)C3)C4)nc21 [Example 293, (6-((3-Fluoro-1-methyl-1H-pyrrolo[2,3-b]pyridin-6-yl)methyl)-2-azaspiro[3.3]heptan-2-yl)((1s,3s)-3-hydroxy-3-methylcyclobutyl)methanone] | 10
C[C@]1(O)C[C@@H](C(=O)N2CC3(CC(Cn4c(C(F)(F)F)cc5cccnc54)C3)C2)C1 [Example 294, ((1s,3s)-3-Hydroxy-3-methylcyclobutyl)(6-((2-(trifluoromethyl)-1H-pyrrolo[2,3-b]pyridin-1-yl)methyl)-2-azaspiro[3.3]heptan-2-yl)methanone] | 10
C[C@]1(O)C[C@@H](C(=O)N2CC3(CC(Cn4ccc5ccc(C(F)(F)F)nc54)C3)C2)C1 [Example 295, ((1s,3s)-3-Hydroxy-3-methylcyclobutyl)(6-((6-(trifluoromethyl)-1H-pyrrolo[2,3-b]pyridin-1-yl)methyl)-2-azaspiro[3.3]heptan-2-yl)methanone] | 20
Cn1cc(C(F)(F)F)c2ccc(CC3CC4(C3)CN(C(=O)[C@H]3C[C@@](C)(O)C3)C4)nc21 [Example 296, ((1s,3s)-3-Hydroxy-3-methylcyclobutyl)(6-((1-methyl-3-(trifluoromethyl)-1H-pyrrolo[2,3-b]pyridin-6-yl)methyl)-2-azaspiro[3.3]heptan-2-yl)methanone] | 0.29
C[C@]1(O)C[C@@H](C(=O)N2CC3(CC(Cc4ccc5ccn(CC(F)(F)F)c5n4)C3)C2)C1 [Example 297, ((1s,3s)-3-Hydroxy-3-methylcyclobutyl)(6-((1-(2,2,2-trifluoroethyl)-1H-pyrrolo[2,3-b]pyridin-6-yl)methyl)-2-azaspiro[3.3]heptan-2-yl)methanone] | 21
Cn1ccc2cnc(CC3CC4(C3)CN(C(=O)[C@H]3C[C@@](C)(O)C3)C4)cc21 [Example 298, ((1s,3s)-3-Hydroxy-3-methylcyclobutyl)(6-((1-methyl-1H-pyrrolo[3,2-c]pyridin-6-yl)methyl)-2-azaspiro[3.3]heptan-2-yl)methanone] | 775
Cn1ncc2cccc(CC3CC4(C3)CN(C(=O)[C@H]3C[C@@](C)(O)C3)C4)c21 [Example 299, ((1s,3s)-3-Hydroxy-3-methylcyclobutyl)(6-((1-methyl-1H-indazol-7-yl)methyl)-2-azaspiro[3.3]heptan-2-yl)methanone] | 70
Cc1cc(CC2CC3(C2)CN(C(=O)[C@H]2C[C@@](C)(O)C2)C3)cc2c1cnn2C [Example 300, (6-((1,4-Dimethyl-1H-indazol-6-yl)methyl)-2-azaspiro[3.3]heptan-2-yl)((1s,3s)-3-hydroxy-3-methylcyclobutyl)methanone] | 20
Cc1cc2cnn(C)c2cc1CC1CC2(C1)CN(C(=O)[C@H]1C[C@@](C)(O)C1)C2 [Example 301, (6-((1,5-Dimethyl-1H-indazol-6-yl)methyl)-2-azaspiro[3.3]heptan-2-yl)((1s,3s)-3-hydroxy-3-methylcyclobutyl)methanone] | 36
Cc1nn(C)c2cc(CC3CC4(C3)CN(C(=O)[C@H]3C[C@@](C)(O)C3)C4)ccc12 [Example 302, (6-((1,3-Dimethyl-1H-indazol-6-yl)methyl)-2-azaspiro[3.3]heptan-2-yl)((1s,3s)-3-hydroxy-3-methylcyclobutyl)methanone] | 21
Cn1ncc2c(F)cc(CC3CC4(C3)CN(C(=O)[C@H]3C[C@@](C)(O)C3)C4)cc21 [Example 303, (6-((4-Fluoro-1-methyl-1H-indazol-6-yl)methyl)-2-azaspiro[3.3]heptan-2-yl)((1s,3s)-3-hydroxy-3-methylcyclobutyl)methanone] | 29
